Results as given in PMC6479817, “In Vitro and In Situ Characterization of the Intestinal Absorption of Capilliposide B and Capilliposide C from Lysimachia capillipes Hemsl” (Molecules, 2019).

Columns and labels:
caco-2 cell monolayer = experiment: Transport (permeability) across caco-2 cell monolayer, bidirectional, with and without inhibitors; type: in vitro ADME, human
Experimental: Caco-2 cells were routinely cultured in high glucose Dulbecco’s modified Eagle’s medium (DMEM) containing 10% fetal bovine serum (FBS), 1% nonessential amino acids, and 1% penicillin/streptomycin. Cells were kept at 37 °C in a 90% relative humidity atmosphere containing 5% CO2. Cells were seeded onto transwells purchased from Corning Costar Co. (New York, NY, USA) on 12-well plates for transport studies and uptake studies at 5 × 10^4 cells per insert. Cells were grown for 20 days. […] DMEM was removed and the monolayer was washed with Hank’s Balanced Salt Solution (HBSS). The blank HBSS was replaced by 0.4 mL of HBSS containing 40, 20 and 10 μg/mL of drug on the apical (AP) side and 2.1 mL of HBSS on the basolateral (BL) side. In the AP-BL direction studies, 0.4 mL of HBSS containing 40 μg/mL drug and P-gp inhibitor (53 μg/mL verapamil); MRP2 inhibitor (17.9 μg/mL indomethacin); or the co-inhibitor of P-gp, MRP2 and CYP3A4 (10 μg/mL cyclosporin A) were added to the AP side; 2.1 mL of HBSS was added to the BL side. In the BL-AP direction studies, 0.4 mL of HBSS containing 40 μg/mL drug and different inhibitors were added to the BL side, and 2.1 mL of HBSS was added to AP side. Samples (0.4 mL) were taken from the BL or AP side after 45, 60 and 90 min incubation at 37 °C. An additional 0.4 mL of HBSS was added at the same time. The concentrations of samples were analyzed by LC-MS. […] Linear regression was carried out to obtain the steady-state appearance rate of the drug on the receiver side.

[1] = Stability in Krebsringer buffer (K-R buffer) at different pH values; type: physicochemical; conditions: pH 5.0, pH 6.55, pH 7.43
Source text: The SPIP model was used to further explore the intestinal permeability features of CAPB and CAPC in rats. Firstly, we determined the stability of CAPB and CAPC in the Krebsringer buffer (K-R buffer) across different pH values. […] In other words, CAPB and CAPC were stable in a weakly acidic environment. Because the pH of intestinal juice was close to 6.55, we used a K-R buffer at pH 6.55 as the perfusion solution.
Figure 4 The characterization of the intestinal permeability of capilliposide B (CAPB) and capilliposide C (CAPC) in single-pass intestinal perfusion (SPIP) model. The stability of CAPB and CAPC were measured at different pH values (pH 5, pH 6.55, and pH 7.34, respectively) (A). The absorption rate constants (ka, s^−1) values (B) and effective permeability (Peff, cm/s) values (C) for CAPB and CAPC at different initial drug concentrations (20 μg/mL, 50 μg/mL, and 80 μg/mL, respectively). p < 0.05 (*) compared with the group at 80 μg/mL. The Ka values (D) and Peff values (E) of CAPB and CAPC obtained from the duodenum, jejunum, and ileum in SPIP models. p < 0.05 (*) compared with the duodenum. All the results are expressed as mean ± S.D. (n = 3).

[2] = design: method as in PMID 24313264; conditions: cited from earlier work
caco-2 cells = experiment: MTT colorimetric assay of caco-2 cell viability; type: cell-based, human; conditions: 24 h; for effect on cell growth (MTT): concentration less than 40 μg/mL; for effect on cell viability (MTT): concentration over 40 μg/mL
Experimental: The effects of CAPs on caco-2 cell viability were checked by 3-(4,5-dimethyl-2-thiazolyl)-2,5-diphenyl-2-H-tetrazolium bromide (MTT) colorimetric assay, which is adapted to analyze cell proliferation and drug cytotoxicity. […] In brief, caco-2 cells were seeded at 4 × 10^3 cells/well into 96-well culture plates and were incubated at 37 °C for 24 h before the assay. The cells were treated with different concentrations (0, 10, 20, 40, 80, 120, 160 and 240 μg/mL) of CAPs. After 24 h of incubation, 20 µL of MTT (5 mg/mL) was added to each well and the cells were incubated for another 4 h. After removing the culture medium, 100 µL of dimethyl sulfoxide was added to dissolve the contents in the plate. Then, the absorbance was measured at 570 and 630 nm (reference wavelength) using a microplate reader (Multiskan MK3; Thermo Fisher Scientific, Waltham, MA, USA).
Figure S2: Capilliposides (CAPs) inhibited the proliferation of caco-2 cells. Caco-2 cells were treated for 24 h with different concentrations (0, 10, 20, 40, 80, 120, 160 and 240 ug/mL) of CAPs. p < 0.05(*), comparison with the group of 0 ug/mL. All the results are expressed as mean ± S.D. (n=3).

[3] = test system: intestinal segment (duodenum, jejunum, ileum); type: in vivo; conditions: rat; for change of Peff and Ka values at higher drug concentration (80 μg/mL) / change of Peff and Ka values between 20 and 50 μg/mL / increase of Peff with indomethacin / increase of intestinal transport with verapamil / order of Peff and Ka values in three intestinal segments: in vivo
Experimental: Male Sprague-Dawley (SD) rats (280 ± 30 g) were supplied by the Laboratory Animal Center, Zhejiang Chinese Medical University (Zhejiang, China). All animals were fasted overnight (12-18 h) with free access to water before experiments. All experiments were performed in accordance with the guidelines for the care and use of animals as established by the Laboratory Animal Centre, Zhejiang Chinese Medical University (Zhejiang, China) (approval number: ACXK20150016). The perfusion experiment was performed as previously reported. In brief, rats were fasted overnight but permitted to drink water freely the day before the experiments. After being anesthetized, the rats were placed on the surface of a thermostatic device and maintained at 37 °C. An incision of approximately 3 cm was made along the midline of the abdominal cavity to expose the contents of the abdomen. […] Then the incision was made at both sides of the segment. The intestinal contents were rinsed with saline preheated at 37 °C, drained with air, and connected to the perfusion system with the catheter. One-hundred […] of pre-prepared perfusate was taken and preheated at 37 °C. The perfusion was started at a circulation speed of 1.0 mL/min for 10 min. […] Samples were collected in glass tubes (2 mL/per) at 10-min intervals for 90 min. […] The rest of the samples were stored at -20 °C for further studies.

Compound	Papp (caco-2 cell monolayer)	Papp (BA)/Papp (AB) (efflux ratio, ER) (caco-2 cell monolayer)	Papp at high and medium vs lower concentration (caco-2 cell monolayer)	Papp over incubation time (caco-2 cell monolayer)	change of permeability in the presence of cyclosporin A (caco-2 cell monolayer)	stability in K-R buffer across pH values [1]	bioavailability and tissue exposure after oral administration [2]	effect on cell growth (MTT) (caco-2 cells)	effect on cell viability (MTT) (caco-2 cells)	change of permeability with cyclosporin A [3]	change of permeability with ketoconazole vs alone [3]	effective permeability (Peff) [3]	change of Peff and Ka values at higher drug concentration (80 μg/mL) [3]	change of Peff and Ka values between 20 and 50 μg/mL [3]	increase of Peff with indomethacin [3]	increase of intestinal transport with verapamil [3]	order of Peff and Ka values in three intestinal segments [3]
CCCCCC(=O)O[C@H]1CC(C)(C)C[C@@H]2[C@@]13[C@H](O)C[C@]1(C)[C@@]2(CC[C@@H]2[C@@]4(C)CC[C@H](O[C@@H]5OC[C@H](O[C@@H]6O[C@H](CO)[C@@H](O)[C@H](O)[C@H]6O[C@@H]6OC[C@@H](O)[C@H](O)[C@H]6O)[C@H](O)[C@H]5O[C@@H]5O[C@H](CO)[C@@H](O)[C@H](O)[C@H]5O)C(C)(C)[C@@H]4CC[C@]21C)O[C@H]3O [CAPB, capilliposide B]	less than 2 × 10^−6 cm/s	1.0-1.5	significant increase in permeability	upward trend over time	10 fold	more stable at pH 5.0 and pH 6.55 than pH 7.43	poor bioavailability and low exposure in tissues	did not inhibit cell growth significantly	significantly decreased cell viability	increased around two-fold	two-fold higher permeability	less than 0.2 × 10^−4 cm/s	significant increase	slight decline	4.2 fold	1.5 fold	duodenum > jejunum > ileum
CC1(C)C[C@H](O[C@@H]2O[C@H](CO)[C@@H](O)[C@H](O)[C@H]2O)[C@@]23[C@H](O)C[C@]4(C)[C@@](CC[C@@H]5[C@@]6(C)CC[C@H](O[C@@H]7OC[C@H](O[C@@H]8O[C@H](CO)[C@@H](O)[C@H](O)[C@H]8O[C@@H]8OC[C@@H](O)[C@H](O)[C@H]8O)[C@H](O)[C@H]7O[C@@H]7O[C@H](CO)[C@@H](O)[C@H](O)[C@H]7O)C(C)(C)[C@@H]6CC[C@]54C)(O[C@@H]2O)[C@@H]3C1 [CAPC, capilliposide C]	less than 2 × 10^−6 cm/s	1.0-1.5	significant increase in permeability	upward trend over time	only a small increase	more stable at pH 5.0 and pH 6.55 than pH 7.43	poor bioavailability and low exposure in tissues	did not inhibit cell growth significantly	significantly decreased cell viability	increased slightly	minimal alteration of permeability	less than 0.2 × 10^−4 cm/s	significant decrease	slight increase	2 fold	1.5 fold	followed the same pattern as CAPB
